One data set relates to FIBS cells. The data set can be described thus: MTT cell viability, non-transformed fibroblasts (FIBS). It is filed as cell-based, Tasmanian devil (Sarcophilus harrisii). The settings on record: 50 µg/mL, 48 h. From the text:
(§1) All DFTD (DFTD1, DFTD2, and DFTD4) and fibroblast (FIBS) cell lines were obtained from the Department of Primary Industries, Parks, Water, and Environment, State Government of Tasmania (DPIPWE) and were established as part of management plan and adhere to a standard operating practice. The DFTD1 cell line with catalogue number 3287 is derived from the tumour from a female devil (tag number: 06/2887) collected at St Marys, Eastern Tasmania in 2006. DFTD2 cell line with catalogue number 8961 was developed from a tumour from a male devil (tag number: 12/0625) collected at Kempton, Northern Tasmania in 2012. The DFTD4 cell line with catalogue number 4099 was developed from the tumour of a male devil (tag number: 07/0192) that was collected at Freycinet, east coast of Tasmania in 2007 and Fibroblasts cells (FIBS) with catalogue number 497 were obtained from a healthy devil male pup (tag number: 05/0962) held at Mount Pleasant, Southeastern of Tasmania in 2005.
(§2) Devil Facial Tumor cancer cell lines, and the control Tasmanian Devil fibroblast (FIBS) healthy cell line were maintained in a humidified incubator at 35 °C and 5% CO2. The DFTD cell lines were cultured in RPMI-1640 medium supplemented with 10% FCS, and 2 mM Glutamax. The FIBS was grown in GIBCO AmnioMAX-C100 Basal Medium liquid, containing AmnioMAX-C100 supplement. Penicillin/streptomycin (PS) (100 U/ml each) was added to both media. The cells were passaged at ~90% confluency. Functional studies were performed with passages up to 20. All cell lines were mycoplasma free.
(§3) Cell viability as an indicator of the number of viable and proliferative cells was measured by MTT according to the protocol of the manufacturer (Sigma-Aldrich, Australia). In brief, 8000 DFTD and 5000 FIBS cells/well were seeded in a 96-flat adherent microtiter well plate for 24 h to allow cell adhesion. Gomesin peptides and/or analogues were then added to the plates to measure MTT reduction. Plates were measured after 48 h at 540 nm absorbance in a microplate reader (BIOTEK PowerWave XS, USA). 0.1% SDS was used as a positive control (100% toxicity). A row of untreated cells was used to define 100% viability and blank wells containing only media were used to extract background. The concentration of gomesin peptides causing 50% inhibition (EC50) in DFTD and FIBS cells was determined using GraphPad Prism Software (Graphpad Inc, USA).

The subject of data set [1] is DFTD4 cells. The data set can be described thus: MTT cell viability, DFTD4 cells. The data set is classed as cell-based, Tasmanian devil (Sarcophilus harrisii). As to conditions: 48 h; for anti-proliferative / cytotoxic activity compared with AgGom: DFTD cell lines (DFTD1, DFTD2, DFTD4); for cell viability / anti-proliferative activity in DFTD4 cells: 50 µg/mL.
Description: as §1, §2, §3

Data set [2] concerns DFTD4 cells. The data set can be described thus: Annexin V-FITC/PI apoptosis and necrosis. It is filed as cell-based, Tasmanian devil (Sarcophilus harrisii). The settings on record: 10 µM, 24 h, positive control. The procedure:
Apoptosis in DFTD4 cells treated with AgGom or HiGom was measured using an Annexin V-FITC Apoptosis detection kit in combination with a Canto II high-throughput fluorescence-activated cell sorter (BD Biosciences, USA). Briefly, cells were seeded at a density of 100,000 cells/well in a round-bottom 96-well plate and treated with 50 µg/mL AgGom or HiGom for 24 h. The cells were collected mechanically, washed twice with PBS and once with wash buffer provided by the manufacturer. Cells were stained simultaneously with FITC-labelled annexin V and PI for 30 min in the dark and at room temperature before being analysed.

A further data set has as its system DFTD. As to conditions: human chemotherapeutic agents in Tasmanian devils; cited from earlier work. The source says: With no treatment available for DFTD, scientists maintain captive, disease-free breeding populations that are released into the wild. Major research efforts are focused on understanding the molecular mechanisms of DFTD and why tumour cells fail to stimulate an immune response in the Tasmanian Devil, including the dramatic downregulation of the expression of Major Histocompatibility Complex (MHC) Class I genes[5]–[9]. Previous trials to treat DFTD using human chemotherapeutic agents, such as vincristine, doxorubicin, and carboplatin have proven to be unsuccessful[10],[11]. In this study, we pos ...

Where a SMILES comes first, the peptide text is derived from it. Bridges are numbered along the chain shown (N, C = ends). [ ]: non-standard residue; d: D form. pGlu = O=C1CC[C@@H](C(=O)O)N1

As for `CC(C)C[C@@H]1NC(=O)[C@H](CCCNC(=N)N)NC(=O)[C@H](CCCNC(=N)N)NC(=O)[C@@H](NC(=O)[C@@H]2CCC(=O)N2)CSSC[C@@H](C(=O)N[C@@H](CCCNC(=N)N)C(=O)NCC(=O)N[C@@H](CCCNC(=N)N)C(N)=O)NC(=O)[C@H](Cc2ccc(O)cc2)NC(=O)[C@H]([C@@H](C)O)NC(=O)[C@H](C(C)C)NC(=O)[C@@H]2CSSC[C@H](NC1=O)C(=O)N[C@@H](Cc1ccc(O)cc1)C(=O)N[C@@H](CCCCN)C(=O)N[C@@H](CC(N)=O)C(=O)N[C@@H](CCCNC(=N)N)C(=O)N2` [AgGomKN] ([pGlu]CRRLCYKNRCVTYCRGR-NH2; disulfide 2-15, 6-11), in the data set on FIBS cells, the “deleterious effects on FIBS viability” value was “minimal deleterious effects”. The “anti-proliferative / cytotoxic activity compared with AgGom” value in the data set with DFTD4 cells [1] is given as “higher anti-proliferative activity than AgGom”.

With `CC(C)C[C@@H]1NC(=O)[C@H](CCCNC(=N)N)NC(=O)[C@H](CCCNC(=N)N)NC(=O)[C@@H](NC(=O)[C@@H]2CCC(=O)N2)CSSC[C@@H](C(=O)N[C@@H](CCCNC(=N)N)C(=O)NCC(=O)N[C@@H](CCCNC(=N)N)C(N)=O)NC(=O)[C@H](Cc2ccc(O)cc2)NC(=O)[C@H]([C@@H](C)O)NC(=O)[C@H](C(C)C)NC(=O)[C@@H]2CSSC[C@H](NC1=O)C(=O)N[C@@H](Cc1ccc(O)cc1)C(=O)N[C@@H](CCCCN)C(=O)N[C@@H](CCCNC(=N)N)C(=O)N[C@@H](CCCNC(=N)N)C(=O)N2` [AgGomKR] ([pGlu]CRRLCYKRRCVTYCRGR-NH2; disulfide 2-15, 6-11), in the data set with FIBS cells, the “deleterious effects on FIBS viability” value is “minimal deleterious effects”. Further, in the data set on DFTD4 cells [1], the “anti-proliferative / cytotoxic activity compared with AgGom” value is listed as “higher anti-proliferative activity than AgGom”.

As for `CC[C@H](C)[C@@H]1NC(=O)[C@H](CCCNC(=N)N)NC(=O)[C@H](CCCNC(=N)N)NC(=O)[C@@H](NC(=O)[C@@H]2CCC(=O)N2)CSSC[C@@H](C(=O)N[C@@H](CCCNC(=N)N)C(=O)NCC(=O)N[C@@H](CCCNC(=N)N)C(N)=O)NC(=O)[C@H](Cc2ccc(O)cc2)NC(=O)[C@H]([C@@H](C)O)NC(=O)[C@H](Cc2ccccc2)NC(=O)[C@@H]2CSSC[C@H](NC1=O)C(=O)NCC(=O)N[C@@H](CCCNC(=N)N)C(=O)N[C@@H](CCCNC(=N)N)C(=O)N[C@@H](CCCNC(=N)N)C(=O)N2` [SpGom] ([pGlu]CRRICGRRRCFTYCRGR-NH2; disulfide 2-15, 6-11), in the data set on FIBS cells, the “deleterious effects on FIBS viability” value is reported as “minimal deleterious effects”. Besides, the “anti-proliferative / cytotoxic activity compared with AgGom” value in the data set with DFTD4 cells [1] is “higher anti-proliferative activity than AgGom”.

For `CC[C@@]1(O)C(=O)OCc2c1cc1n(c2=O)Cc2cc3ccccc3nc2-1` [camptothecin, reference compound], in the data set on DFTD4 cells [2], the late apoptosis is listed as more than 30%.

On to `N.N.O=C([O-])C1(C(=O)[O-])CCC1.[Pt+2]` [carboplatin], for which the “outcome of trials to treat DFTD” value in the data set on DFTD is reported as “unsuccessful”.

Turning to `COc1cccc2c1C(=O)c1c(O)c3c(c(O)c1C2=O)C[C@@](O)(C(=O)CO)C[C@@H]3O[C@H]1C[C@H](N)[C@H](O)[C@H](C)O1` [doxorubicin], in the data set with DFTD, the “outcome of trials to treat DFTD” value was “unsuccessful”.

On to `CC[C@]1(O)C[C@H]2CN(CCc3c([nH]c4ccccc34)[C@@](C(=O)OC)(c3cc4c(cc3OC)N(C=O)[C@H]3[C@@](O)(C(=O)OC)[C@H](OC(C)=O)[C@]5(CC)C=CCN6CC[C@]43[C@@H]65)C2)C1` [vincristine], for which the “outcome of trials to treat DFTD” value in the data set on DFTD was “unsuccessful”.

As for “ZCARLCYKQRCVTYCRGR-NH2 (bicyclic or more) [AgGomR3A, AgGom analogue R3A]”, in the data set with DFTD4 cells [1], the “cell viability / anti-proliferative activity in DFTD4 cells” value is given as “eradicated the anti-proliferative activity”.

With “ZCRRACYKQRCVTYCRGR-NH2 (bicyclic or more) [AgGomL5A, AgGom analogue L5A]”, in the data set with DFTD4 cells [1], the “cell viability / anti-proliferative activity in DFTD4 cells” value is “eradicated the anti-proliferative activity”.

With “ZCRRLCYKQRCATYCRGR-NH2 (bicyclic or more) [AgGomV12A, AgGom analogue V12A]”, the “cell viability / anti-proliferative activity in DFTD4 cells” value in the data set with DFTD4 cells [1] is recorded as “eradicated the anti-proliferative activity”.

The values above are taken from PMC5841354, “Gomesin peptides prevent proliferation and lead to the cell death of devil facial tumour disease cells” (Cell Death Discovery, 2018).
